PubChem BioAssay AID504867 (The Scripps Research Institute Molecular Screening Center, 2011)
pEC50: −log10 of the molar value.

Target: Sphingosine 1-phosphate receptor 5 (Homo sapiens) (UniProt Q9H228)
Experiment: S1P5 receptor agonists, human, late-stage follow-up, counter-screen for S1P4 agonist project, cell-based, fluorescence, set 2 (AID 504867)
Settings: S1P5 agonist cell assay, fluorescence read-out

Sphingosine 1-phosphate receptor 5 (Homo sapiens), sequence (Q9H228 whole entry, looked up): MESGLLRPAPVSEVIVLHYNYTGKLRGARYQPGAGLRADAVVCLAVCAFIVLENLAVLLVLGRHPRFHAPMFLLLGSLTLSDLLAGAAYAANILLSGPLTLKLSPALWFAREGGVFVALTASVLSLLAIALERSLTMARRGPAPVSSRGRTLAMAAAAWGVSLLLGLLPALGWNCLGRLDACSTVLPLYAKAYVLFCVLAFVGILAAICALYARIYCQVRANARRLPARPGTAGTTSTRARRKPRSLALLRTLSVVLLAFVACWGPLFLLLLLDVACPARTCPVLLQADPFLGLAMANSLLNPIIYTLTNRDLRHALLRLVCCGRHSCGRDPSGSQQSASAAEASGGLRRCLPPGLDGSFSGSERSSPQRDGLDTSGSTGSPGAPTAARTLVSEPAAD

COCCN=C1S/C(=C\c2cc(C)n(-c3ccc(F)cc3F)c2C)C(=O)N1C
pEC50: 5.68
